The values below are quoted from earlier work in patent US11439647B2 (Janssen Pharmaceutica NV, priority 2020, dated 2022).

For `CCCCCCCCCCCCCCCC(=O)OC1CCCn2c1nc(C)c(CCN1CCC(c3noc4cc(F)ccc34)CC1)c2=O` (racemic) [paliperidone palmitate, (±)-3-[2-[4-(6-fluoro-1,2-benzisoxazol-3-yl)-1-piperidinyl]ethyl]-6,7,8,9-tetrahydro-2-methyl-4-oxo-4H-pyrido[1,2-c]pyrimidin-9-yl hexadecanoate], the water solubility result is given as “extreme low”.
